{
  "source": "patent US10023613B2",
  "about": "“Peptidomimetic macrocycles as modulators of MCL-1” (AILERON Therapeutics, Inc., priority 2015, dated 2018)",
  "system": "Human Raji cells",
  "format": "cell-based",
  "conditions": "Raji Cell Viability, 48 h, 5% serum",
  "protocol": "BIM peptidomimetic macrocycles were tested for cell killing at various concentrations. Human Raji cells were treated with increasing doses of peptidomimetic macrocycles corresponding to SEQ ID NO. 763 (FIGS. 1 and 2), 1143 (FIGS. 1-3), and 1621 (FIGS. 3 and 4). An % Viable cells was calculated for each dose of the peptidomimetic macrocycle from a non-linear fit of response vs dose (GraphPad Prism). […]",
  "note": "Bridge positions count the residues as written; N and C are the ends. Square brackets hold non-standard residues; d marks the D form. Peptide text beside a SMILES is read from it. R8 = C=CCCCCCC[C@@](C)(N)C(=O)O; S5 = C=CCCC[C@](C)(N)C(=O)O",
  "data": [
    {"smiles": "CC[C@H](C)[C@H](NC(C)=O)C(=O)N[C@@H](Cc1c[nH]c2ccccc12)C(=O)N[C@H](C(=O)N[C@@H](C)C(=O)N[C@@H](CCC(N)=O)C(=O)N[C@@H](C)C(=O)N[C@@H](CC(C)C)C(=O)N[C@@H](CCCNC(=N)N)C(=O)N[C@]1(C)CCCCCCC=CCCC[C@@](C)(C(=O)N[C@@H](Cc2ccc(O)cc2)C(=O)N[C@@H](Cc2ccc(O)cc2)C(=O)N[C@@H](C)C(N)=O)NC(=O)[C@H](CC(N)=O)NC(=O)[C@H](Cc2ccccc2)NC(=O)[C@H](CCC(=O)O)NC(=O)[C@H](CC(=O)O)NC(=O)CNC(=O)[C@H]([C@@H](C)CC)NC1=O)[C@@H](C)CC", "note": "[compound 1647] (Ac-IWIAQALR[R8]IGDEFN[S5]YYA-NH2; staple 9-16)", "values": [
      {"measurement": "EC50", "result": "> 40", "unit": "µM"}
    ]}
  ]
}
